Measured values as given in ChEMBL document CHEMBL5537149, “Design, synthesis, and lead optimization of piperazinyl-pyrimidine analogues as potent small molecules targeting the viral capping machinery of Chikungunya virus” (Eur J Med Chem, 2024).
Values after ≈ are worked out from the molar mass of the structure shown.

Columns and labels:
Chikungunya virus = test: Antiviral activity against Chikungunya virus infected in African green monkey Vero cells assessed as reduction in viral induced cell death incubated for 5 days by MTS reagent based absorbance method; format: functional, organism-based; settings: 120 h
[1] = Aqueous solubility of compound at pH 7.4 by HPLC analysis; format: physicochemical
[2] = Metabolic stability in human liver microsomes assessed as half-life preincubated for 5 mins followed by NADPH addition and measured upto 60 mins by HPLC-MS/MS analysis; format: ADME, Microsome; settings: time < 65 min
[3] = Cytotoxicity against African green monkey Vero cells assessed as reduction in overall metabolic activity incubated for 5 days by MTS reagent based absorbance method; format: toxicity, cell-based; settings: chlorocebus sabaeus, time 5 day
[4] = Selectivity index, ratio of CC50 for cytotoxicity against African green monkey Vero cells to EC50 for antiviral activity against Chikungunya virus infected in African green monkey Vero cells assessed as reduction in viral induced cell death; format: toxicity, cell-based; settings: read-out: Ratio CC50/EC50

SMILES | EC50 (Chikungunya virus) [µM] | solubility [1] [µM] | half-life [2] [min] | CC50 at 120 h [3] [µM] | selectivity ratio [4]
CCNc1cc(C)nc(N2CC3CCC(C2)N3C(=O)c2cc(Cl)cc(Cl)c2)n1 | > 100 | 97 (≈ 40.8 µg/mL) | – | – | –
O=C(c1cc(Cl)cc(Cl)c1)N1CCN(c2nc(Cl)nc3[nH]cnc23)CC1 | 18 | 66 (≈ 27.2 µg/mL) | > 60 | – | –
CCNc1cc(C)nc(N2CCN(S(=O)(=O)c3ccc(Cl)nc3)CC2)n1 | 121 | 115 (≈ 45.6 µg/mL) | – | 97 | 0.8
CCNc1nc(C)cc(N2CC3CCC(C2)N3C(=O)c2cc(Cl)cc(Cl)c2)n1 | 14 | 111 (≈ 46.7 µg/mL) | > 60 | – | –
O=C(c1ccc(Cl)cc1)N1CCN(c2ncnc3[nH]cnc23)CC1 | 94 | 114 (≈ 39.1 µg/mL) | – | – | –
Nc1nc(N2CCN(C(=O)c3cc(Cl)cc(Cl)c3)CC2)c2nc[nH]c2n1 | > 100 | 47 (≈ 18.4 µg/mL) | – | – | –
CCNc1cc(C)nc(N2CCC3(CCN(C(=O)c4cc(Cl)cc(Cl)c4)C3)C2)n1 (stereo not drawn) | 28 | 108 (≈ 46.9 µg/mL) | – | – | –
CCNc1nc(C)cc(N2CCC(NC(=O)c3cc(Cl)cc(Cl)c3)CC2)n1 | > 25 | 100 (≈ 40.8 µg/mL) | – | > 100 | –
Cc1cc(N2CCN(S(=O)(=O)c3ccc(F)cc3)CC2)nc(N2CCCC2)n1 | 25 | > 120 | – | 47 | 1.9
CCNc1nc(C)cc(N2CC3CCC(C2)N3C(=O)c2ccc(Cl)cc2)n1 | 17 | – | – | 84 | 5
CCNc1nc(N2CCN(C(=O)c3ccc(Cl)c(Cl)c3)CC2)cc(C(F)(F)F)n1 | > 100 | – | – | > 100 | –
O=C(c1cc(Cl)cc(Cl)c1)N1CCN(c2nc(C(F)(F)F)nc3[nH]cnc23)CC1 | 77 | 73 (≈ 32.5 µg/mL) | – | – | –
CCNc1nc(C)cc(N2CCC3(CCN(C(=O)c4ccc(Cl)cc4)C3)C2)n1 (stereo not drawn) | 18 | – | – | 45 | 2.5
CCNc1cc(C)nc(NC2CN(C(=O)c3cc(Cl)cc(Cl)c3)C2)n1 | > 100 | 93 (≈ 35.4 µg/mL) | – | – | –
O=C(c1cc(Cl)cc(Cl)c1)N1CCN(c2ncnc3[nH]cnc23)CC1 | 32 | 112 (≈ 42.3 µg/mL) | – | – | –
CCNc1nc(N2CCN(C(=O)c3ccc(Br)cc3)CC2)cc(C(F)(F)F)n1 | > 100 | 33 (≈ 15.1 µg/mL) | – | > 100 | –
Cc1nc(Cl)c(N)c(N2CCN(C(=O)c3ccc(Cl)c(Cl)c3)CC2)n1 | 9.8 | 118 (≈ 47.3 µg/mL) | > 60 | – | –
CCNc1cc(C)nc(N2CCN(C(=O)c3cc(Cl)cc(Cl)c3)CC2)n1 | 67 | 11 (≈ 4.34 µg/mL) | – | > 100 | > 1.5
CCNc1cc(C(F)(F)F)nc(N2CCN(C(=O)c3cccc(Br)c3)CC2)n1 | 41 | 0.8 (≈ 0.367 µg/mL) | 17 | – | –
CCNc1nc(C)cc(NC2CN(C(=O)c3cc(Cl)cc(Cl)c3)C2)n1 | 8.5 | 104 (≈ 39.5 µg/mL) | 37 | – | –
CCNc1cc(C)nc(N2CC(NC(=O)c3cc(Cl)cc(Cl)c3)C2)n1 | > 88 | 47 (≈ 17.9 µg/mL) | – | – | –
Nc1nc(N2CCN(C(=O)c3ccc(Cl)c(Cl)c3)CC2)c2nc[nH]c2n1 | > 100 | 106 (≈ 41.6 µg/mL) | – | – | –
Cc1cc(N(C)C)nc(N2CCN(C(=O)c3cc(Cl)cc(Cl)c3)CC2)n1 | > 100 | 95 (≈ 37.5 µg/mL) | – | > 100 | –
Nc1nc(N2CCN(C(=O)c3ccc(Cl)cc3)CC2)c2nc[nH]c2n1 | > 100 | 116 (≈ 41.5 µg/mL) | – | – | –
CCNc1cc(C)nc(N2CC3CN(C(=O)c4cc(Cl)cc(Cl)c4)CC3C2)n1 (stereo not drawn) | 23 | 108 (≈ 45.4 µg/mL) | – | – | –
CCNc1cc(C)nc(N2CCN(C(=O)C3CCCCC3)CC2)n1 | 70 | 119 (≈ 39.4 µg/mL) | – | 147 | 2.1
O=C(c1ccc(Cl)c(Cl)c1)N1CCN(c2nc(C(F)(F)F)nc3[nH]cnc23)CC1 | 9.5 | 71 (≈ 31.6 µg/mL) | > 60 | – | –

SMILES | EC50 (Chikungunya virus) [µM] | solubility [1] [µM] | half-life [2] [min] | CC50 at 120 h [3] [µM] | selectivity ratio [4]
CC(C)Nc1ccnc(N2CCN(S(=O)(=O)c3ccc(F)cc3)CC2)n1 | 10 | 100 (≈ 37.9 µg/mL) | 46 | – | –
CCNc1cc(C)nc(N2CCC3(CC2)CC(=O)c2ccccc2O3)n1 | 23 | 100 (≈ 35.2 µg/mL) | – | – | –
CCNc1nc(C)cc(N2CC3CN(C(=O)c4ccc(Cl)cc4)CC3C2)n1 (stereo not drawn) | 3.2 | – | – | 72 | 23
CCNc1nc(C)cc(N2CC(NC(=O)c3cc(Cl)cc(Cl)c3)C2)n1 | > 100 | 81 (≈ 30.8 µg/mL) | – | – | –
CCNc1cc(C)nc(N2CCC3(CCN(C(=O)c4ccc(Cl)cc4)C3)C2)n1 (stereo not drawn) | 32 | – | – | 74 | 2.3
CCNc1nc(C)cc(N2CCN(C(=O)c3ccc(Cl)cc3Cl)CC2)n1 | > 100 | > 120 | – | 47 | < 0.47
CCNc1nc(C)cc(N2CCC3(CCN(C(=O)c4cc(Cl)cc(Cl)c4)C3)C2)n1 (stereo not drawn) | 11 | 98 (≈ 42.6 µg/mL) | > 60 | – | –
CCNc1cc(N2CCN(S(=O)(=O)c3ccc(F)cc3)CC2)ncn1 | > 274 | 94 (≈ 34.4 µg/mL) | – | – | –
CCNc1nc(C)cc(N2CCC3(CC2)CC(=O)c2ccccc2O3)n1 | 4.2 | 98 (≈ 34.5 µg/mL) | > 60 | – | –
CCNc1cc(C)nc(N2CC3CN(C(=O)c4ccc(Cl)cc4)CC3C2)n1 (stereo not drawn) | 12 | – | – | > 88 | > 7.5
CCNc1nc(C)cc(N2CCN(C(=O)c3ccc(F)cc3F)CC2)n1 | > 100 | – | – | > 100 | > 1
Cc1nc(N2CCN(C(=O)c3cc(Cl)cc(Cl)c3)CC2)c2nc[nH]c2n1 | > 100 | 92 (≈ 36 µg/mL) | – | – | –
CCNc1cc(C)nc(N2CCCC(NC(=O)c3cc(Cl)cc(Cl)c3)C2)n1 (stereo not drawn) | > 25 | 31 (≈ 12.7 µg/mL) | – | 49 | < 1.95
Cc1nc(N2CCN(C(=O)c3ccc(Cl)cc3)CC2)c2nc[nH]c2n1 | 97 | 84 (≈ 30 µg/mL) | – | – | –
O=C(c1ccc(Cl)c(Cl)c1)N1CCN(c2ncnc3[nH]cnc23)CC1 | 66 | 104 (≈ 39.2 µg/mL) | – | – | –
CCNc1cc(C)nc(N2CC3CCC(C2)N3C(=O)c2ccc(Cl)cc2)n1 | 79 | – | – | > 88 | > 1.11
CCNc1nc(C)cc(N2CC3CN(C(=O)c4cc(Cl)cc(Cl)c4)CC3C2)n1 (stereo not drawn) | 19 | 109 (≈ 45.8 µg/mL) | > 60 | – | –
Cc1nc(Cl)c(N)c(N2CCN(C(=O)c3cc(Cl)cc(Cl)c3)CC2)n1 | 32 | 94 (≈ 37.7 µg/mL) | – | – | –
CCNc1cc(C)nc(N2CCC(NC(=O)c3cc(Cl)cc(Cl)c3)CC2)n1 | > 100 | 52 (≈ 21.2 µg/mL) | – | 48 | < 0.48
CCNc1nc(C)cc(N2CCN(C(=O)c3ccc(C)cc3C)CC2)n1 | > 100 | – | – | > 100 | > 1
Cc1cc(N2CCN(C(=O)c3cccc(Br)c3)CC2)nc(N(C)C)n1 | 100 | – | – | > 100 | > 1
CCNc1nccc(N2CCN(C(=O)c3ccc(F)cc3)CC2)n1 | 216 | > 120 | – | > 304 | > 1.4
Cc1nc(Cl)c(N)c(N2CCN(C(=O)c3ccc(Cl)cc3)CC2)n1 | > 88 | – | – | > 88 | > 1
CCNc1cc(C(F)(F)F)nc(N2CCN(C(=O)c3ccc(Cl)c(Cl)c3)CC2)n1 | > 6.3 | – | 36 | > 25 | –
O=C(c1ccc(Cl)cc1)N1CCN(c2nc(C(F)(F)F)nc3[nH]cnc23)CC1 | 26 | 36 (≈ 14.8 µg/mL) | – | – | –
CCNc1cc(C)nc(N2CCN(S(=O)(=O)c3cccs3)CC2)n1 | 103 | 68 (≈ 25 µg/mL) | – | 180 | 1.8
